{"source": "paper PMC7253177", "about": "“Gain of channel function and modified gating properties in TRPM3 mutants causing intellectual disability and epilepsy” (eLife, 2020)", "molecular_target": "T1, TRPM3 V990M mutant (Homo sapiens, UniProt Q9HCF6, V1015M)", "T1 construct": "expressed in transfected cells; host or cells: HEK293T", "T1 sequence (Q9HCF6 1-1325 isoform Q9HCF6-10 V990M)": "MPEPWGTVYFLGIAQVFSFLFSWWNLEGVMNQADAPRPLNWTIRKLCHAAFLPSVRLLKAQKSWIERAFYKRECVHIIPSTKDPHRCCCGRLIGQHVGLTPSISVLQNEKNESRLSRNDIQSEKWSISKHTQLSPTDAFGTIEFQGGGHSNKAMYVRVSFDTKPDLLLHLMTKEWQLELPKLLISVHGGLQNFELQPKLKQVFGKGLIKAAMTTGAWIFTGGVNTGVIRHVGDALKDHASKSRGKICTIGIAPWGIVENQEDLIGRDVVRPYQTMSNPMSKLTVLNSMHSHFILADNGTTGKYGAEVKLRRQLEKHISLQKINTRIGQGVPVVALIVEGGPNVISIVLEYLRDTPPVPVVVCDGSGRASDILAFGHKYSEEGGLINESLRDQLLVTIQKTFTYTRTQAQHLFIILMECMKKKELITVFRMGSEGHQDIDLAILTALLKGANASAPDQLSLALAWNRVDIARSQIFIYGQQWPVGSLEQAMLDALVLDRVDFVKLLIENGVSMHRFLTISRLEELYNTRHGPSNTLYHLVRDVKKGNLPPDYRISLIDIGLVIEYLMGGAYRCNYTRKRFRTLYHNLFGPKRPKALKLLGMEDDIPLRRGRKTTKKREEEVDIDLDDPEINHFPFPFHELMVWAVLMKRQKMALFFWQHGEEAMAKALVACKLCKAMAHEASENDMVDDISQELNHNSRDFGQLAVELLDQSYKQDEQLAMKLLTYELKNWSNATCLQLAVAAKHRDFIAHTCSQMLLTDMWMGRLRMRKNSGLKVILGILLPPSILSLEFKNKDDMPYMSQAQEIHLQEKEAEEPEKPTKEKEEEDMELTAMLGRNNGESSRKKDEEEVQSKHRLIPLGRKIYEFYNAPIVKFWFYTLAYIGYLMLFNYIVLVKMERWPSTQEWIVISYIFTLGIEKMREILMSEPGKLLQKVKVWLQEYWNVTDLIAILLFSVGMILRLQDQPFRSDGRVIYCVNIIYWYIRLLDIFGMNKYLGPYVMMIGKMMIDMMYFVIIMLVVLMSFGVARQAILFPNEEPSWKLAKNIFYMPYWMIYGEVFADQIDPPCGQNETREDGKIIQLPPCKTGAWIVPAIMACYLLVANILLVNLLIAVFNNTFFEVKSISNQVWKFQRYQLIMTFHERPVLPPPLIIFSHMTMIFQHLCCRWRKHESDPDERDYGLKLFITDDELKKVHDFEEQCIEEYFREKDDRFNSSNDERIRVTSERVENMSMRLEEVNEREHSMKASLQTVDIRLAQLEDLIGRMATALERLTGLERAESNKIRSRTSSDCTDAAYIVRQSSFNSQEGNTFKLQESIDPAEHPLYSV", "test": "Whole-cell patch clamp, HEK293T cells expressing V990M hTRPM3", "assay_type": "cell-based", "protocol": "HEK293T cells ([Graham et al., 1977]) were cultured as described previously ([Vriens et al., 2007]) and used up in passage number 14. HEK293T cells were tested for the lack of mycoplasma and transiently transfected with 2 µg of DNA using TransIT transfection reagent (Mirus) 36–48 hr before the measurements. In case of co-cultures a ratio of 1:1 between hTRPM3-YFP WT and mutants-YFP DNA was used.\nAll mutants were obtained by the standard PCR overlap extension method using hTRPM3 directly linked to YFP from pCAGGS/IRES-GFP vector ([Vriens et al., 2007]). Accuracy of all mutant sequences was verified by sequencing of the entire DNA constructs.\nStandard whole-cell patch-clamp recordings were performed with an EPC-10 amplifier and the PatchMasterPro Software (HEKA Elektronik, Lambrecht, Germany). Current measurements were performed at a sampling rate of 20 kHz and currents were digitally filtered at 2.9 kHz. In all measurements, 70% of the series resistance was compensated. The standard internal solution contained (in mM): 100 CsAsp, 45 CsCl, 10 EGTA, 10 HEPES, 1 MgCl2 (pH 7.2 with CsOH) or 140 potassium gluconate, 5 EGTA, 1 MgCl2, 10 HEPES and 2 NaATP (pH 7.3 with CsOH) for the measurements of Gβγ mediated inhibition and the standard extracellular solution contained (in mM): 150 NaCl, 1 MgCl2, 10 HEPES (pH 7.4 with NaOH). The standard patch pipette resistance was between 2 MΩ and 4 MΩ when filled with pipette solution. In experiments allowing Ca^2+-dependent desensitization of TRPM3, Mg^2+ was replaced by Ca^2+ in the extracellular solution, and Cs^+ was replaced by Na^+ in the pipette solution. […] The chemical ligands were dissolved in bath solution from a stock diluted in DMSO."}
{"smiles": "Clc1ccccc1C(c1ccccc1)(c1ccccc1)n1ccnc1", "note": "[Clt, clotrimazole]", "values": [{"measurement": "Activation of whole-cell currents in the absence of PS", "setting": "Clt 10 µM", "result": "induced robust currents"}]}
{"smiles": "CCC1(c2ccccc2)C(=O)NCNC1=O", "note": "[primidone]", "values": [{"measurement": "Block of PS-activated currents", "setting": "primidone 25 µM, PS 40 µM, ±80 mV, cells co-expressing µ-opioid receptor", "result": "~ 50%"}]}
